Test results from US11845681B2, “Process and plant for treating wastewater containing micropollutants of pharmaceutical origin” (Cockerill Maintenance & Ingenierie S.A., priority 2018, dated 2023).

Experiments:
fixed biomass = conditions: constant includes sorption, desorption and biodegradation; cited from earlier work
suspended biomass = conditions: constant includes sorption, desorption and biodegradation; cited from earlier work
[1] = Purification efficiency of biologically activated carbon (BAC) columns C1 to C5; conditions: for average degradation: detailed analysis on 16 molecules, over column conditions; for effect of EBCT on degradation: longer EBCTs (e.g. 19 minutes)
Source text: The activated carbon used was in GAC form, for example of the Norit 830W type (Cabot). According to the invention, however, several types of activated carbon may be used, by varying the nature of the carbon, the specific surface developed and the type of pores.
According to one embodiment, the GAC was conditioned for 2 months with the wastewater effluents coming from the MB-MBR before being placed in an acrylic glass column. Operation was monitored for approximately 5 months. The purpose of conditioning is to reduce the time before the breakthrough point of the filter, i.e. the moment when the adsorption capacity is exhausted and biodegradation is the dominant process.
The biological purification performance of micropollutants was evaluated according to the following methodology: • 1. Saturation of adsorption sites and verification by measuring the reduction in dissolved organic carbon; • 2. Evaluation of bacterial activity via measurements of oxygen consumption; • 3. Correlation analyzes between bacterial activity and micropollutant removal.
Based on the operational parameters selected for columns C1 to C5, the purification efficiencies of 12 of the 13 molecules indicative of the efficiency of the method are presented in FIG. 8.

SMILES	Kbio, Biomass Fixed (fixed biomass)	Kbio, Biomass suspended (suspended biomass)	average degradation [1]	effect of EBCT on degradation [1]
CC(C)NCC(O)COc1ccc(CC(N)=O)cc1 (stereo not shown) [Atenolol]	0.53-0.67 l/g biomass · day	0.67-0.9 l/g biomass · day		
CC[C@H]1OC(=O)[C@H](C)[C@@H](O[C@H]2C[C@@](C)(OC)[C@@H](O)[C@H](C)O2)[C@H](C)[C@@H](O[C@@H]2O[C@H](C)C[C@H](N(C)C)[C@H]2O)[C@](C)(OC)C[C@@H](C)C(=O)[C@H](C)[C@@H](O)[C@]1(C)O [Clarithromycin]	≤0.2 l/g biomass · day	0.18-0.29 l/g biomass · day	around 50%	better degraded with longer EBCTs
O=C(O)Cc1ccccc1Nc1c(Cl)cccc1Cl [Diclofenac]	1.3-1.7 l/g biomass · day	≤0.1 l/g biomass · day	around 50%	better degraded with longer EBCTs
NC(=O)N1c2ccccc2C=Cc2ccccc21 [Carbamazepine]	≤0.1 l/g biomass · day	≤0.1 l/g biomass · day		
CC(=O)Nc1ccc(S(=O)(=O)Nc2cc(C)on2)cc1 [N-acetylsulfamethoxazole]	0.7-1.6 l/g biomass · day	1.1-1.4 l/g biomass · day		
O=P1(N(CCCl)CCCl)NCCCO1 (stereo not shown) [cyclophosphamide]			around 50%	better degraded with longer EBCTs
